Data as given in the supplement of paper PMC10307832.

Experiments:
Test in all cases: relative viability (nuclei count vs DMSO), 5 days (fraction); higher = more cells survive
[1] = compound: CCc1cnn2c(NCc3ccc[n+]([O-])c3)cc(N3CCCC[C@H]3CCO)nc12 [Dinaciclib] + CC1(C)CCC(c2ccc(Cl)cc2)=C(CN2CCN(c3ccc(C(=O)NS(=O)(=O)c4ccc(N[C@H](CCN5CCOCC5)CSc5ccccc5)c(S(=O)(=O)C(F)(F)F)c4)cc3)CC2)C1 [Navitoclax] (partner 0.5 µM)
Procedure, shortened: (§1)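 Lung cancer cell lines were seeded in 1536-well plates and dosed by pin tool the next day, with either a single drug or a fixed anchor-drug dose combined with five library-drug doses (not always all listed) spaced in √10 steps. Five days later, one step fixed the cells and stained their nuclei (final 0.05% Triton X-100, 1% formaldehyde, 1 ug/ml Hoechst), and nuclei were counted on 4× images. Relative viability is the nuclei count in treated wells divided by the count in vehicle wells, and each value is the median of duplicate plates.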

[2] = compound: CCc1cnn2c(NCc3ccc[n+]([O-])c3)cc(N3CCCC[C@H]3CCO)nc12 [Dinaciclib] + COc1cc2c(Oc3ccc(NC(=O)C4(C(=O)Nc5ccc(F)cc5)CC4)cc3F)ccnc2cc1OCCCN1CCOCC1 [Foretinib] (partner 0.25 µM)
Procedure, shortened: as §1

[3] = compound: CCc1cnn2c(NCc3ccc[n+]([O-])c3)cc(N3CCCC[C@H]3CCO)nc12 [Dinaciclib] + COc1cccc2cc(-c3nc([C@H]4CC[C@H](C(=O)O)CC4)n4ncnc(N)c34)[nH]c12 [OSI-027] (partner 0.5 µM)
Procedure, shortened: as §1

[4] = compound: CCc1cnn2c(NCc3ccc[n+]([O-])c3)cc(N3CCCC[C@H]3CCO)nc12 [Dinaciclib] + Cc1cc(Nc2cc(N3CCN(C)CC3)nc(Sc3ccc(NC(=O)C4CC4)cc3)n2)n[nH]1 [Tozasertib] (partner 0.1 µM)
Procedure, shortened: as §1

[5] = compound: CCc1cnn2c(NCc3ccc[n+]([O-])c3)cc(N3CCCC[C@H]3CCO)nc12 [Dinaciclib] + Nc1nc2[nH]cc(CCc3ccc(C(=O)N[C@@H](CCC(=O)O)C(=O)O)cc3)c2c(=O)[nH]1 [Pemetrexed] (partner 0.2 µM)
Procedure, shortened: as §1

Cell Line | relative viability ([1]; first compound 0.009487 µM) | relative viability ([1]; first compound 0.03 µM) | relative viability ([1]; first compound 0.09487 µM) | relative viability ([1]; first compound 0.3 µM) | relative viability ([2]; first compound 0.009487 µM) | relative viability ([2]; first compound 0.03 µM) | relative viability ([2]; first compound 0.09487 µM) | relative viability ([2]; first compound 0.3 µM) | relative viability ([3]; first compound 0.009487 µM) | relative viability ([3]; first compound 0.03 µM) | relative viability ([3]; first compound 0.09487 µM) | relative viability ([3]; first compound 0.3 µM) | relative viability ([4]; first compound 0.009487 µM) | relative viability ([4]; first compound 0.03 µM) | relative viability ([4]; first compound 0.09487 µM) | relative viability ([4]; first compound 0.3 µM) | relative viability ([5]; first compound 0.009487 µM) | relative viability ([5]; first compound 0.03 µM) | relative viability ([5]; first compound 0.09487 µM) | relative viability ([5]; first compound 0.3 µM)
ChaGo-K-1 | 0.541 | 0.219 | 0.173 | 0.17 | 0.918 | 0.245 | 0.12 | 0.14 | 0.499 | 0.186 | 0.128 | 0.119 | 0.22 | 0.168 | 0.132 | 0.111 | 0.257 | 0.216 | 0.149 | 0.119
EKVX | 0.738 | 0.298 | 0.0814 | 0.106 | 0.93 | 0.0805 | 0.246 | 0.0963 | 0.694 | 0.59 | 0.204 | 0.105 | 0.398 | 0.253 | 0.074 | 0.0722 | 0.35 | 0.267 | 0.122 | 0.123
EMC-BAC-2 | 1.22 | 0.576 | 0.205 | 0.213 | 1.14 | 0.319 | 0.159 | 0.148 | 0.353 | 0.188 | 0.207 | 0.217 | 0.265 | 0.209 | 0.142 | 0.121 | 0.451 | 0.381 | 0.288 | 0.259
EPLC-272H | 1.05 | 0.576 | 0.411 | 0.0616 | 0.591 | 0.0464 | 0.0366 | 0.0314 | 0.288 | 0.152 | 0.0567 | 0.0523 | 0.229 | 0.0357 | 0.0443 | 0.0467 | 0.189 | 0.0576 | 0.0509 | 0.0711
H3255 | 0.487 | 0.0787 | 0.0605 | 0.0759 | 0.841 | 0.76 | 0.217 | 0.2 | 0.593 | 0.394 | 0.279 | 0.226 | 0.678 | 0.578 | 0.256 | 0.218 | 0.633 | 0.423 | 0.227 | 0.213
HARA | 1.04 | 0.0747 | 0.0574 | 0.0511 | 0.583 | 0.0737 | 0.0603 | 0.0628 | 0.532 | 0.064 | 0.04 | 0.0478 | 0.105 | 0.0553 | 0.0492 | 0.0424 | 0.24 | 0.172 | 0.122 | 0.0976
HCC-15 | 0.587 | 0.244 | 0.0855 | 0.0945 | 0.652 | 0.12 | 0.109 | 0.107 | 0.596 | 0.113 | 0.0869 | 0.107 | 0.407 | 0.0586 | 0.0549 | 0.0646 | 0.217 | 0.122 | 0.128 | 0.125
HCC-44 | 1.08 | 0.15 | 0.149 | 0.161 | – | – | – | – | 0.286 | 0.208 | 0.159 | 0.17 | 0.594 | 0.204 | 0.206 | 0.184 | 0.665 | 0.695 | 0.388 | 0.351
